This note sets out measurements from publication PMC4585835 (Scientific Reports, 2015).

Where a SMILES comes first, the peptide text is derived from it. [ ]: non-standard residue; d: D form. The star is where a group is joined. Stearoyl = CCCCCCCCCCCCCCCCCC(=O)*

One data set concerns the target T1, rat thrombin (Rattus norvegicus, UniProt P18292).
T1 construct: purchased Sigma
The experiment in a line: Inhibition of rat thrombin-catalyzed hydrolysis of Chromozym TH. The data set is classed as biochemical. Particulars: 25 °C, pH 7.4.

The next data set addresses T2, human thrombin (Homo sapiens, UniProt P00734).
T2 construct: purchased National Institute for the Control of Pharmaceutical and Biological Products (Beijing, China)
In words: Degradation mediated by human thrombin (HPLC). Type of data set: in vitro ADME. To be noted: human thrombin (69 NIH/mL) in Tris-HCl buffer, pH 8, 69 NIH/ml human thrombin, peptide 0.41 mM, 37 °C, read-out: peptide remained after reaction with human thrombin. As for the experimental part:
The catalytic cleavage of peptides mediated by thrombin was also examined using the same method. Specifically, a peptide solution (0.41 mM) was first incubated with thrombin (69 NIH/mL) in Tris-HCl buffer (70 mM Tris HCl, NaCl 50 mM, pH = 8.0) at 37 °C.

The next data set addresses T3, trypsin (Bos taurus, UniProt P00760).
T3 construct: purchased Roche Corp (Indianapolis, USA)
T3 sequence (P00760 24-246): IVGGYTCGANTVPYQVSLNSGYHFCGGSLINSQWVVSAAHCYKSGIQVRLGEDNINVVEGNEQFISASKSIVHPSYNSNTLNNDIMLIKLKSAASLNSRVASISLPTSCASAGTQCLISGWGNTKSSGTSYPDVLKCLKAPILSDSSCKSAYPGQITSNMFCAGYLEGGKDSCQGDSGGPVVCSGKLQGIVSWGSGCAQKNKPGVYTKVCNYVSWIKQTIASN
In words: Degradation mediated by trypsin (HPLC). The data set is classed as in vitro ADME. To be noted: trypsin (119 ng/μL) in Tris-HCl buffer, pH 8.5, 119 μg/ml trypsin, peptide 0.79 mM, 37 °C, read-out: peptide intact after incubation with trypsin. The text has this:
The degradation of peptides mediated by trypsin can be effectively monitored by HPLC analysis. […] The detector wavelength was set at 214 nm.

Another data set deals with IVC thrombosis. The experiment in a line: Inferior vena cava (IVC) thrombosis in rats. The data set is classed as in vivo, rat. As for the experimental part:
Specifically, a laparotomy with ligation of the IVC below the renal veins and all visible side branches was first performed. 20 min or 5 hours after the administration of peptide or saline, the thrombosis in the IVC was carefully dissected and weighted after removing blood residual.

The subject of data set [1] is rat plasma. The experiment in a line: Time course of APTT in rat plasma after peptide administration. The data set is classed as in vivo. As for the experimental part: Peptides were administrated to male SD rats (280–320 g) via tail veins. At different time points (0, 20, 40, 60, 90, 120, 180, and 240 min; or 0, 1, 2, 3, 4, 5, 8, and 12 h) after peptide injection, blood samples were collected via retroorbital vein plexus, and then mixed with 3.2% sodium citrate solution in a ratio of 9:1 (v/v). The resulting mixtures were centrifuged at 2,000 g for 15 min at 4 °C. The APTT of rat plasma was determined on a coagulation analyzer (Coatron M1, TECO, Germany) following the manual protocol. Briefly, a cuvette with 0.05 mL rat plasma was first warmed to 37 °C for 2 min, and then 0.05 mL of the warmed APTT reagent was added, followed by incubating at 37 °C for 3 min. Afterwards, 50 μL calcium chloride solution (0.25 M) was added into the cuvette, and the clotting time of plasma samples was recorded immediately with the coagulation analyser (APTT).

Data set [2] concerns rat plasma. The experiment in a line: TT, PT and APTT of rat blood after administration. The data set is classed as in vivo. As to the method: Forty-eight male SD rats (180 ~ 220 g) were randomly divided into six groups (n = 8) and anesthetized by i.p.20% ethyl urethane (1 g·kg^−1). […] Blood samples were obtained from the abdominal aorta, and then mixed with 3.8% sodium citrate solution in a ratio of 9:1 (v/v). The resulting samples were centrifuged at 3000 rpm for 15 min at 18 °C. TT, PT and APTT were determined according to the kit protocol (Sunbio Ltd., Shanghai) on a C2000 coagulometer (Precil, Beijing).

Data set [3] deals with T4, human serum albumin (HSA) (Homo sapiens, UniProt P02768).
T4 construct: purchased Calbiochem (Merck, Germany)
The experiment in a line: Intrinsic HSA fluorescence quenching. The data set is classed as binding. To be noted: HSA 5 μM, pH 7.4, 25 °C. As to the method:
Fluorescence measurements were conducted on a Hitachi F-4500 spectrofluorometer with a slit width of 5 nm (excitation) and 5 nm (emission). All measurements were performed at 25 °C in a 1 cm path length quartz cell. Samples were excited at 280 nm and the fluorescence intensity was measured between 300–400 nm. Human serum albumin (5 μM) was dissolved in 10 mM HEPES/100 mM NaCl solution (pH 7.4), and then titrated with the stock solution of peptides prepared in the same buffer. The background fluorescence spectra were recorded and subtracted from the ones collected from the peptide-containing samples.

The nature of data set [4]: Bleeding time test (BT) in rats. Particulars: for increase on the bleeding time compared with the saline group: 30 min; for bleeding time (BT): 30 min after administration. The data set is classed as in vivo, rat. As for the experimental part: Bleeding time was determined as reported previously. Male SD rats (180–220 g) were divided into 6 groups (n = 8). […] Thirty minutes after the injection, bleeding was induced by tail transection of the anesthetized rat with a size 21 disposable scalpel blade 2 mm from the tail tip. The bleeding tail was wiped with filter paper every 30 s, and the bleeding time was recorded when no blood was observed on the filter paper.

The target in data set [5] is T4, human serum albumin (HSA). In words: Surface plasmon resonance on surface-immobilized HSA. Type of data set: binding. Particulars: HBS-EP buffer, 0.1-10 μM peptide. As to the method: Briefly, HSA was first immobilized on CM5 sensor chips using the standard amine coupling protocol provided by manufacturer. The carboxymethylated dextran surface was then activated by injecting 45 μL of the solution containing 0.2 M N-ethyl-N’-(3-dimethylaminopropyl) carbodiimide hydrochloride and 0.05 M N-hydroxy succinimide. Subsequently, HSA and the control antibody were dissolved in 10 mM Na-citrate solution (pH 5.0, 50 μg/ml) and then injected until the desired amount of HSA and control antibody were coupled (8000 RUs). At this point, a buffer with higher ionic strength (HBS-EP, 0.01 M Hepes, pH = 7.4, 0.15 M NaCl, 3 mM EDTA, 0.005% surfactant) was used to wash off the ligands bound non-covalently. Finally, the 1 M ethanolamine hydrochloride solution (pH 8.5) was employed to cap the free NHS esters present on the sensor surface. […] All samples were injected onto the surface of HSA and control antibody over 3 minutes at a flow rate of 30 μL/min, followed by a dissociation period of 15 min. The 2.5 μM sample was subject to this protocol twice. Sensorgrams were obtained for each peptide concentration, respectively.
(Surface plasmon resonance follows binding to a sensor surface in real time, without labels.)

T4 sequence (P02768 25-609): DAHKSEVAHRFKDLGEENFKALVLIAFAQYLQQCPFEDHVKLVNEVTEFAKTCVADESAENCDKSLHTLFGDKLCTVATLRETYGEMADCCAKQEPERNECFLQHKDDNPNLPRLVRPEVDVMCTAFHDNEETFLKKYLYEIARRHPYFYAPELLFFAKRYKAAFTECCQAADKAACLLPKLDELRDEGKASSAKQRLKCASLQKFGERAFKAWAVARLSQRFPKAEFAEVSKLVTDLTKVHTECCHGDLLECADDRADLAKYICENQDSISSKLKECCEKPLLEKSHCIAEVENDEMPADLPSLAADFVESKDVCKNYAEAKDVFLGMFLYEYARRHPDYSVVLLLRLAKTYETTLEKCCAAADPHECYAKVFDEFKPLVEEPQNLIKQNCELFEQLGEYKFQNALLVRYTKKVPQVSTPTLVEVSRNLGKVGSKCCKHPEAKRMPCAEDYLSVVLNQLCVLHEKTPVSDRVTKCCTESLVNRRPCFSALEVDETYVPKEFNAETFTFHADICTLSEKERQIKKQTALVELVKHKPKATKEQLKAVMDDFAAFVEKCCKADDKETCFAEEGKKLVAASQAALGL

Compound `CCCCCCCCCCCCCCCCCC(=O)NCCCC[C@H](NC(=O)CNC(=O)[C@@H]1CCCN1C(=O)[C@H](CCCNC(=N)N)NC(=O)[C@@H]1CCCN1C(=O)[C@H](N)Cc1ccccc1)C(=O)NCC(=O)NCC(=O)N[C@@H](CCC(N)=O)C(=O)NCC(=O)N[C@@H](CC(=O)O)C(=O)N[C@@H](Cc1ccccc1)C(=O)N[C@@H](CCC(=O)O)C(=O)N1CCC[C@H]1C(=O)N[C@H](C(=O)N1CCC[C@H]1C(=O)N[C@@H](CCC(=O)O)C(=O)N[C@@H](CC(=O)O)C(=O)N[C@@H](C)C(=O)N[C@@H](Cc1ccc(O)cc1)C(=O)N[C@@H](CC(=O)O)C(=O)N[C@@H](CCC(=O)O)C(N)=O)[C@@H](C)CC` [Peptide S2] (H-[dF]PRPGK(Stearoyl)GGQGDFEPIPEDAYDE-NH2; N-terminus assumed) registered a Ki on rat thrombin of 15.2 ± 0.18 nM. The remaining at 3 h, 0.41 mM on human thrombin (3 h) was determined as 93%. Moreover, the remaining at 5 h, 0.41 mM on human thrombin (5 h) was 69%. Also, the remaining at 3 h, 0.79 mM on trypsin (3 h) is 39%. The remaining at 5 h, 0.79 mM at trypsin (5 h) is 23%. Moreover, the “Weight of wet thrombosis” value turned out to be 1.7 ± 0.2 mg with IVC thrombosis (0.27 mg/kg (0.1 μmol/kg), 300 min after administration); 0 mg in the data set on IVC thrombosis (0.81 mg/kg (0.3 μmol/kg), 300 min after administration); 0 mg with IVC thrombosis (1.61 mg/kg (0.6 μmol/kg), 300 min after administration); 1.3 ± 1.8 mg in the data set on IVC thrombosis (2.69 mg/kg (1.0 μmol/kg), 20 min after administration); 0 mg with IVC thrombosis (2.69 mg/kg (1.0 μmol/kg), 300 min after administration). Besides, in the data set on rat plasma [1] (after injection via tail vein, Fig. 1D), the “APTT of rat plasma, time course” value was “increased in the first 4 h, and then decreased”. Also, the “duration of antithrombotic activity (APTT)” value in the data set on rat plasma [1] (rat plasma after peptide administration) is given as “more than 8 h”. In the data set with rat plasma [2] (0.5 mg/kg peptide S2, 30 min after administration), the “antithrombotic activity (TT, PT, APTT) compared with references” value was “superior to the 8 mg/kg hirulog-1 and 200 IU/kg heparin”. Besides, the “TT, PT and APTT of rat blood” value in the data set with rat plasma [2] (30 min after administration, sublingual vein) was “significantly elevate”. The “binding to HSA by intrinsic fluorescence quenching” value in [3] was “dose-dependent fluorescence quenching within the range of 2.5 ~ 16 μM”. Further, the “increase on the bleeding time compared with the saline group” value stood at 29.03% in data set [4] (0.5 mg/kg), 122.58% in data set [4] (1.0 mg/kg) and 174.19% in data set [4] (2.0 mg/kg). The “bleeding time (BT)” value came out at 300.00 ± 35.86 s in data set [4] (0.5 mg/kg), 517.50 ± 38.45 s in data set [4] (1.0 mg/kg) and 637.50 ± 74.79 s in data set [4] (2.0 mg/kg). The “binding to surface-immobilized HSA (SPR)” value in data set [5] is “weakly bind to HSA”.

In general, Ki refers to a dissociation constant, usually derived from enzyme kinetics or from competition with a known ligand. A high value points to weaker binding.
